# Laboratory results reported in US12077503B2, “Substituted cyclic amides and their use as herbicides” (FMC CORPORATION, priority 2015, dated 2024).
# Tests used:
# Assay type in all cases: in vivo
# [1] = system: giant foxtail (Setaria faberi); assay: Test G Post-Emergence Protocol; conditions: Setaria faberi, post-emergence, 312 h, read-out: Foxtail, Giant damage rating
# Summary of the method: (§1)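 Foliar application was made 8 days after sowing, using an aqueous spray of the active in acetone/water (50:50) with 0.5% Tween 20, at doses of 15.625, 62.5 or 250 g/ha. Injury was assessed 13 days later, where 100 meant the plant was fully damaged.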
# [2] = system: velvetleaf (Abutilon theophrasti); assay: Test G Post-Emergence Protocol; conditions: Abutilon theophrasti, post-emergence, 312 h, read-out: Velvetleaf damage rating
# Summary of the method: as §1
# corn (Zea mays) [3] = assay: Test G Post-Emergence Protocol; conditions: Zea mays, post-emergence, 312 h, read-out: Corn damage rating
# Summary of the method: as §1
# [4] = system: redroot pigweed (Amaranthus retroflexus); assay: Test G Post-Emergence Protocol; conditions: Amaranthus retroflexus, post-emergence, 312 h, read-out: Pigweed, Redroot damage rating
# Summary of the method: as §1
# [5] = system: ivy-leaved morning glory (Ipomoea hederacea); assay: Test G Post-Emergence Protocol; conditions: Ipomoea, post-emergence, 312 h, read-out: Morningglory, Ivy-leaved damage rating
# Summary of the method: as §1
# [6] = system: barnyardgrass (Echinochloa crus-galli); assay: Test G Post-Emergence Protocol; conditions: Echinochloa crus-galli, post-emergence, 312 h, read-out: Barnyardgrass damage rating
# Summary of the method: as §1
# [7] = system: giant foxtail (Setaria faberi); assay: Test G Pre-Emergence Protocol; conditions: Setaria faberi, pre-emergence, 312 h, evaluated after 13 days
# Summary of the method: (§2)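 Pots of seeds in standard soil were grown for one day in a glasshouse (24/16 °C day/night, 14 h light, 65% humidity), then sprayed with compound in acetone/water 50:50 with 0.5% Tween 20 at 15.625, 62.5 or 250 g/ha. Damage was scored after 13 days on a 0 (none) to 100 (total) scale.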
# [8] = system: velvetleaf (Abutilon theophrasti); assay: Test G Pre-Emergence Protocol; conditions: Abutilon theophrasti, pre-emergence, 312 h, evaluated after 13 days
# Summary of the method: as §2
# corn (Zea mays) [9] = assay: Test G Pre-Emergence Protocol; conditions: Zea mays, pre-emergence, 312 h, evaluated after 13 days
# Summary of the method: as §2
# [10] = system: redroot pigweed (Amaranthus retroflexus); assay: Test G Pre-Emergence Protocol; conditions: Amaranthus retroflexus, pre-emergence, 312 h, evaluated after 13 days
# Summary of the method: as §2
# [11] = system: ivy-leaved morning glory (Ipomoea hederacea); assay: Test G Pre-Emergence Protocol; conditions: Ipomoea, pre-emergence, 312 h, evaluated after 13 days
# Summary of the method: as §2
# [12] = system: barnyardgrass (Echinochloa crus-galli); assay: Test G Pre-Emergence Protocol; conditions: Echinochloa crus-galli, pre-emergence, 312 h, evaluated after 13 days
# Summary of the method: as §2
# [13] = 15.625 g ai/ha, evaluated after 13 days (100=total damage to plant; 0=no damage to plant)
# [14] = 62.5 g ai/ha, evaluated after 13 days, 100=total damage to plant, 0=no damage to plant
# [15] = 250 g ai/ha, evaluated after 13 days, 100=total damage to plant, 0=no damage to plant
structure (smiles),measurement,setting,value
CN1C[C@H](c2ccc(C(F)(F)F)cc2)[C@@H](C(=O)Nc2cccc3ccsc23)C1=O (racemic) [Compound 1757],pest or weed control at 15.625 g/ha,[1]; [13],0%
same,pest or weed control at 62.5 g/ha,[1]; [14],20%
same,pest or weed control at 250 g/ha,[1]; [15],60%
same,pest or weed control at 15.625 g/ha,[2]; [13],0%
same,pest or weed control at 62.5 g/ha,[2]; [14],0%
same,pest or weed control at 250 g/ha,[2]; [15],0%
same,plant injury at 15.625 g/ha,corn (Zea mays) [3]; [13],0%
same,plant injury at 62.5 g/ha,corn (Zea mays) [3]; [14],0%
same,plant injury at 250 g/ha,corn (Zea mays) [3]; [15],0%
same,pest or weed control at 15.625 g/ha,[4]; [13],0%
same,pest or weed control at 62.5 g/ha,[4]; [14],0%
same,pest or weed control at 250 g/ha,[4]; [15],0%
same,pest or weed control at 15.625 g/ha,[5]; [13],0%
same,pest or weed control at 62.5 g/ha,[5]; [14],0%
same,pest or weed control at 250 g/ha,[5]; [15],10%
same,pest or weed control at 15.625 g/ha,[6]; [13],0%
same,pest or weed control at 62.5 g/ha,[6]; [14],10%
same,pest or weed control at 250 g/ha,[6]; [15],30%
same,pest or weed control at 15.625 g/ha,"[7]; 15.625 g ai/ha, read-out: Foxtail, Giant damage rating (100=total damage to plant; 0=no damage to plant)",0%
same,pest or weed control at 62.5 g/ha,"[7]; 62.5 g ai/ha, 100=total damage to plant, 0=no damage to plant, read-out: Foxtail, Giant damage rating",30%
same,pest or weed control at 250 g/ha,"[7]; 250 g ai/ha, read-out: Foxtail, Giant damage rating (100=total damage to plant; 0=no damage to plant)",70%
same,pest or weed control at 15.625 g/ha,"[8]; 15.625 g ai/ha, read-out: Velvetleaf damage rating (100=total damage to plant; 0=no damage to plant)",0%
same,pest or weed control at 62.5 g/ha,"[8]; 62.5 g ai/ha, 100=total damage to plant, 0=no damage to plant, read-out: Velvetleaf damage rating",0%
same,pest or weed control at 250 g/ha,"[8]; 250 g ai/ha, read-out: Velvetleaf damage rating (100=total damage to plant; 0=no damage to plant)",0%
same,plant injury at 15.625 g/ha,"corn (Zea mays) [9]; 15.625 g ai/ha, read-out: Corn damage rating (100=total damage to plant; 0=no damage to plant)",0%
same,plant injury at 62.5 g/ha,"corn (Zea mays) [9]; 62.5 g ai/ha, 100=total damage to plant, 0=no damage to plant, read-out: Corn damage rating",0%
same,plant injury at 250 g/ha,"corn (Zea mays) [9]; 250 g ai/ha, read-out: Corn damage rating (100=total damage to plant; 0=no damage to plant)",0%
same,pest or weed control at 15.625 g/ha,"[10]; 15.625 g ai/ha, read-out: Pigweed, Redroot damage rating (100=total damage to plant; 0=no damage to plant)",0%
same,pest or weed control at 62.5 g/ha,"[10]; 62.5 g ai/ha, 100=total damage to plant, 0=no damage to plant, read-out: Pigweed, Redroot damage rating",0%
same,pest or weed control at 250 g/ha,"[10]; 250 g ai/ha, read-out: Pigweed, Redroot damage rating (100=total damage to plant; 0=no damage to plant)",0%
same,pest or weed control at 15.625 g/ha,"[11]; 15.625 g ai/ha, read-out: Morningglory, Ivy-leaved damage rating (100=total damage to plant; 0=no damage to plant)",0%
same,pest or weed control at 62.5 g/ha,"[11]; 62.5 g ai/ha, 100=total damage to plant, 0=no damage to plant, read-out: Morningglory, Ivy-leaved damage rating",0%
same,pest or weed control at 250 g/ha,"[11]; 250 g ai/ha, read-out: Morningglory, Ivy-leaved damage rating (100=total damage to plant; 0=no damage to plant)",0%
same,pest or weed control at 15.625 g/ha,"[12]; 15.625 g ai/ha, read-out: Barnyardgrass damage rating (100=total damage to plant; 0=no damage to plant)",0%
same,pest or weed control at 62.5 g/ha,"[12]; 62.5 g ai/ha, 100=total damage to plant, 0=no damage to plant, read-out: Barnyardgrass damage rating",10%
same,pest or weed control at 250 g/ha,"[12]; 250 g ai/ha, read-out: Barnyardgrass damage rating (100=total damage to plant; 0=no damage to plant)",10%
